The record followed here is patent US9329188B2, “Method for detecting invasive microvesicles derived from tumor cells” (University of Notre Dame, priority 2010, dated 2016).

For one data set, the system named is LOXARF6-GDP cells. Description: Microvesicle shedding, cells with microvesicles at the cell surface scored. Type of data set: cell-based. The note with it: LOXARF6-GDP cells treated with propranolol or atenolol. The source says: (§1) Standard error bars are shown.
The treated cells were visualized, and those with microvesicles present at the cell surface were scored as described above.

A further data set concerns phospho-ERK. Description: Phospho-ERK and total-ERK in cell lysates, western blotting with densitometry. Type of data set: cell-based. The note with it: LOXARF6-GDP cells; propranolol (0.1 mM), atenolol (10 uM). The source says:
The treated cells were probed for phospho-ERK and total-ERK. Band intensities were quantified by densitometry. The average of 3 independent experiments is plotted and standard error bars are shown.

Data set [1] relates to parental LOX and LOXARF6-GTP cells. Description: Microvesicle shedding: microvesicles released into media isolated and quantitated for protein, or surface microvesicles scored. Format: cell-based. As to the method:
Data from 5 independent experiments is plotted. Standard error bars are shown.
as §1
Released microvesicles were isolated and quantitated for protein. The average of three independent experiments with standard error bars for each experimental condition is shown.
Parental LOX and LOXARF6-GTP were treated with 10 μM ML-7 for 2 hrs. Microvesicles released were isolated, quantitated for protein, and the data is shown as fold change in shedding relative to untreated LOX cells.
The total protein content of lysed microvesicles can be calculated, for example by using the Bradford assay (BioRad). This assay utilizes a spectroscopic analysis procedure to measure the concentration of protein in a solution.

A further data set relates to cleaved caspase 3. As to the kind of experiment: Cleaved caspase 3 as sign of apoptosis. Type of data set: cell-based. As to conditions: cells treated with okadaic acid, compared with LOX cells expressing mutant ARF6.
In a further data set the test system is ERK. The note with it: cells treated with 1-butanol. As to the method:
Studies have shown that ARF6 stimulates phospholipase D (PLD) activity (C. D'Souza-Schorey et al., Nat. Rev. Mol. Cell Biol. 7, 347-58 (2006)). […] Here, ARF6 regulated PLD activity and its involvement with ERK activation was tested. First, phospho-ERK levels upon PLD inactivation were examined. […] Next, primary alcohols were used to inhibit PLD, which results in the formation of phosphatidylalcohol at the expense of phosphatidic acid by replacing water.

Another data set relates to LOX cells. As to conditions: cells expressing constitutively activated MEK; 1-butanol. The source says: Next, the role of phospho-ERK levels in microvesicle shedding was investigated. Specifically, microvesicle shedding was examined in LOXARF6-GDP cells after phospho-ERK levels were restored, or after stimulating PLD activity through pathways independent of ARF6. […] Finally, the effect of 1-butanol on microvesicle shedding induced by expression of constitutively activated MEK was investigated.

The subject of data set [2] is phospho-MLC. As to the kind of experiment: Phospho-MLC in cell lysates by western blotting, LOXARF6-GDP cells. Format: cell-based. As to conditions: Go6976 10 μM, ML-7 10 μM, U0126 30 μM for 2 hrs at 37° C. As to the method: Cell lysates were probed for phospho-MLC, phospho-ERK and α-tubulin by western blotting.
(§2) Cell lines as indicated were treated with ML-7, and cell lysates were probed for phospho-MLC and α-tubulin by Western blotting. Band density was measured by densitometric scanning. Fold increase in the ratio of phospho-MLC to α-tubulin in ML-7 treated cells relative to untreated cells is shown.
On the technique in general: In western blotting, separated proteins are transferred to a membrane and probed.

The subject of data set [3] is phospho-MLC. Description: Phospho-MLC in cell lysates by western blotting, parental LOX and LOXARF6-GTP cells. Type of data set: cell-based. As to the method: Additional lanes on the immunoblot between lanes 2 and 3 were spliced out. Band density was measured by densitometric scanning.
as §2
Lysates of parental LOX and LOXARF6-GTP treated with Go6976 […] for 2 hrs at 37° C. were probed for phospho-MLC and α-tubulin by Western blotting.

The subject of another data set is PC3 and SW480 cell lines. The note with it: MEK inhibition.
The mark [4] stands for this setting: LOX cells treated with blebbistatin or latrunculin A.

From the text for PC3 and SW480 cell lines: Vesicle shedding was examined in other tumor cell lines; SW480, a colon carcinoma cell line, PC3, a prostate adenocarcinoma cell line, and MDA-MB-231, an invasive breast tumor cell line.

Take `CC(C)NCC(O)COc1cccc2ccccc12` (centres unmarked) [propranolol]: the “microvesicle shedding / release” value in the data set on LOXARF6-GDP cells is recorded as “induced microvesicle shedding”; with LOXARF6-GDP cells (listed as Propranolol) it was “restored vesicle shedding”. In addition, the phospho-ERK levels entry in the data set on phospho-ERK is “restored phospho-ERK levels”.
With `C/C1=C/C(=O)O[C@@H]2C[C@@H](CC[C@H](C)/C=C\C=C\CC1)O[C@@](O)([C@@H]1CSC(=O)N1)C2` [latrunculin A], in data set [1] (setting [4]), the microvesicle shedding entry is “profoundly affected microvesicle shedding”. Also, the “treated cells exhibiting clustered microvesicles at the cell surface” value in [1] (LOX cells treated with latrunculin A) is 85-90%. Further, in data set [1] (parental LOX and LOXARF6-GTP cells, 2 μM Latrunculin A for 45 min, released microvesicles quantitated for protein), the release of microvesicles entry is listed as “inhibited”.
As for `CC(C)NCC(O)COc1ccc(CC(N)=O)cc1` (centres unmarked) [atenolol], the “microvesicle shedding / release” value with LOXARF6-GDP cells is “did not have any effect”. Moreover, in the data set with phospho-ERK, the phospho-ERK levels entry is given as “did not have any effect”.
On to `Cc1ccc2c(c1)C(=O)C1(O)CCN(c3ccccc3)C1=N2` (centres unmarked) [blebbistatin], for which the microvesicle formation result in [1] (LOX cells in the presence of blebbistatin) was “microvesicles do not form”. For the same molecule, the microvesicle shedding entry in data set [1] (setting [4]) is recorded as “profoundly affected microvesicle shedding”.
Take `C=C1[C@@H](O)[C@@H]2O[C@]3(CC[C@H](/C=C/[C@@H](C)[C@@H]4CC(C)=C[C@@]5(O[C@H](C[C@@](C)(O)C(=O)O)CC[C@H]5O)O4)O3)CC[C@H]2O[C@@H]1[C@@H](O)C[C@H](C)[C@H]1O[C@@]2(CCCCO2)CC[C@H]1C` [okadaic acid]: in the data set on cleaved caspase 3, the “cleaved caspase 3 in cells” value is recorded as “present in a higher proportion of the cells”.
Turning to `CCCCO` [1-butanol], in the data set on ERK, the ERK activation result was “inhibits”. Moreover, in the data set with LOX cells, the “microvesicle shedding induced by constitutively activated MEK” value was “little to no effect”. For the same molecule, the microvesicle shedding result in data set [1] (LOX cells, 0.3% 1-butanol for 30 min, cells with eight or more surface microvesicles scored) is on record as “inhibits”.
For the molecule `Cn1c2ccccc2c2c3c(c4c5ccccc5n(CCC#N)c4c21)CNC3=O` [Go6976], in the data set on phospho-MLC [2], the “phospho-MLC levels / MLC phosphorylation” value is on record as “decreased”. In addition, in the data set with phospho-MLC [3] (Go6976 for 2 hrs at 37° C.), the phospho-MLC levels result is “no decrease”.
`O=S(=O)(c1cccc2c(I)cccc12)N1CCCNCC1` [ML-7]: in the data set on phospho-MLC [2] (listed as ML7), the “phospho-MLC levels / MLC phosphorylation” value is on record as “little to no effect”. Moreover, the microvesicle shedding result in data set [1] (parental LOX and LOXARF6-GTP cells, 10 μM ML-7 for 2 hrs) is recorded as “blocks”. Besides, in the data set on phospho-MLC [3] (10 μM ML-7 for 2 hrs), the MLC phosphorylation result was “blocked”.
For `N#CC(=C(/N)Sc1ccccc1N)/C(C#N)=C(\N)Sc1ccccc1N` [U0126], the microvesicle shedding result with PC3 and SW480 cell lines is listed as “blocked microvesicle shedding”. In addition, the “phospho-MLC levels / MLC phosphorylation” value in the data set on phospho-MLC [2] was “no inhibition”. Besides, in [1], the “basal as well as ARF6-GTP enhanced microvesicle shedding” value is recorded as “significant inhibition”. For the same molecule, the phospho-MLC levels result in the data set on phospho-MLC [3] (U0126 (30 μM)) was “inhibition of phospho-MLC was evident”.
